Where two headings read alike, the source gives them in different places.
Tested on: HIV
Test: Anti-HIV activity in MT4 cells (method of Averett, J. Virol. Methods 1989)
Assay type: cell-based
Experimental: The compounds of the present invention were tested for anti-HIV activity in MT4 cells according to the method described by Averett, D. R., J. Virol.

[1] = Human immunodeficiency virus 1, read-out: Activity Range (IC50)

Row | SMILES | IC50 [1] | IC50 (read-out: Activity Range (IC50))
1 | CCCc1c(OCC2OCCO2)c2cc(Cl)ccc2[nH]c1=O [Example 6, 6-Chloro-4-(1,3-dioxolan-2-ylmethoxy)-3-propyl-2(1H)-quinolinone] | 500 to 2000 nM | –
2 | CCCc1c(OC#CC2CC2)c2cc(Cl)ccc2[nH]c1=O [Example 35, 6-Chloro-4-[(2-cyclopropylethynyl)oxy]-3-propyl-2(1H)-quinolinone] | 5 to 100 nM | –
3 | CCCc1c(OC2CCCC2)c2cc(C)ccc2[nH]c1=O [Example 10, 4-Cyclopentyloxy-6-methyl-3-propyl-2(1H)-quinolinone] | 500 to 2000 nM | –
4 | CC(C)c1c(OC2CCCCC2)c2cc(Cl)ccc2[nH]c1=O [Example 9, 6-Chloro-4-(cyclohexyloxy)-3-isopropyl-2(1H)-quinolinone] | 5 to 100 nM | –
5 | CCCc1c(OCC2CC2)c2cc(Cl)ccc2[nH]c1=O [Example 3, 6-Chloro-4-(cyclopropylmethoxy)-3-propyl-2(1H)-quinolinone] | 100 to 500 nM | –
6 | CC(C)c1c(OC#CC2CC2)c2cc(Cl)ccc2[nH]c1=O [Example 46, 6-Chloro-4-[(2-Cyclopropylethynyl)oxy]-3-isopropyl-2(1H)-quinolinone] | 5 to 100 nM | –
7 | CCCc1c(OC2CCCCC2)c2cc(Cl)ccc2[nH]c1=O [Example 1, 6-Chloro-4-(cyclohexyloxy)-3-propyl-2(1H)-quinolinone] | 5 to 100 nM | –
8 | CCCc1c([S+]([O-])C2CCCCC2)c2cc(Cl)ccc2[nH]c1=O (centres unmarked) [Example 24, 6-Chloro-4-(cyclohexylsulfinyl)-3-propyl-2(1H)-quinolinone] | 100 to 500 nM | –
9 | CCCc1c(OC2CCCCC2)c2cc(Cl)ccc2[nH]c1=S [Example 20, 6-Chloro-4-(cyclohexyloxy)-3-propyl-2(1H)-quinolinethione] | 5 to 100 nM | –
10 | CCCc1c(OCC2CCCCC2)c2cc(Cl)ccc2[nH]c1=O [Example 5, 6-Chloro-4(cyclohexylmethoxy)-3-propyl-2(1H)-quinolinone] | 500 to 2000 nM | –

Results, then the compound that gave them:

Row | IC50 [1] | IC50 (read-out: Activity Range (IC50)) | SMILES
11 | 5 to 100 nM | – | CC(C)c1c(OC#CC2CC2)c2cc(F)ccc2[nH]c1=O [Example 36, 4-[(2-Cyclopropylethynyl)oxy]-6-fluoro-3-(isopropyl)-2(1H)-quinolinone]
12 | 5 to 100 nM | – | CCCc1c(OC#CC2CC2)c2cc(F)ccc2[nH]c1=O [Example 37, 4-[(2-Cyclopropylethynyl)oxy]-6-fluoro-3-propyl-2(1H)-quinolinone]
13 | 5 to 100 nM | – | CCc1c(OC#CC2CC2)c2cc(F)ccc2[nH]c1=O [Example 45, 4-[(2-Cyclopropylethynyl)oxy]-3-ethyl-6-fluoro-2(1H)-quinolinone]
14 | – | 5 to 100 nM | CC(C)Cc1c(OC#CC2CC2)c2cc(F)ccc2[nH]c1=O [Example 47, 4-[(2-Cyclopropylethynyl)oxy]-6-fluoro-3-isobutyl-2(1,H)-quinolinone]

From patent US20030069271A1, “Quinolone compounds for use in treating viral infections” (priority 1999, published 2003)
